Results reported in ChEMBL document CHEMBL4819103, “Discovery of selective fragment-sized immunoproteasome inhibitors” (Eur J Med Chem, 2021).
One block for each compound: values may come before it.

Legend:
[1] = molecular target: T1, Proteasome Macropain subunit MB1 (Homo sapiens) (UniProt P28074); experiment: Inhibition of beta 5 chymotrypsin-like activity (unknown origin) at 100 uM using Suc-LLVY-AMC as substrate for 90 mins by fluorescence based assay; set-up: scale not given: the % may be the effect or the level left
T1 sequence (whole entry): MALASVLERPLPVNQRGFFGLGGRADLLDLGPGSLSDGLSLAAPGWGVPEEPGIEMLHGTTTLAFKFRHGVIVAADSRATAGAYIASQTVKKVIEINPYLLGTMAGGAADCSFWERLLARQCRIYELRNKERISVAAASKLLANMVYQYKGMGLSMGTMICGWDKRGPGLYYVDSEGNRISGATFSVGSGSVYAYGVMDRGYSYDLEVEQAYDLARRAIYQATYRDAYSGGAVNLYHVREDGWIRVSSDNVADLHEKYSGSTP

[2] = molecular target: T2, Proteasome subunit beta type-8 (Homo sapiens, UniProt P28062); experiment: Inhibition of human chymotrypsin-like beta 5i subunit of iCP using suc-LLVY-AMC as flurogenic substrate for 90 mins by fluorescence-based assay
T2 sequence (P28062 whole entry): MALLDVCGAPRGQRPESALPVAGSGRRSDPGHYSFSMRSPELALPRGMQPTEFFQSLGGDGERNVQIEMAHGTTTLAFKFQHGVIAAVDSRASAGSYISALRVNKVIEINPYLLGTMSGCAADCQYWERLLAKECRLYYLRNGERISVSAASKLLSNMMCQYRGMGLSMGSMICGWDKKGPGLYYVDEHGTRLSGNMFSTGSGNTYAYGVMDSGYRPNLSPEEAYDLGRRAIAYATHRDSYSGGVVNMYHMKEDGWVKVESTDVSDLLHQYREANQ

[3] = Thiol reactivity of the compound assessed as TNB2-depletion at 200 uM measured upto 24 hrs by TNB2-depletion assay; assay type: physicochemical
[4] = molecular target: T3, Proteasome subunit beta type-8 (Homo sapiens) (UniProt P28062); experiment: Inhibition of human chymotrypsin-like beta 5i subunit of iCP assessed as residual activity using suc-LLVY-AMC as flurogenic substrate at 100 uM for 90 mins by fluorescence-based assay
T3 sequence (whole entry): T2 sequence (P28062 whole entry)

[5] = Glutathione reactivity of compound at pH 7.5 measured by HPLC-MS assay; assay type: physicochemical
[6] = Glutathione reactivity of compound at pH 8.5 measured by HPLC-MS assay; assay type: physicochemical
[7] = Glutathione reactivity of compound at pH 9 measured by HPLC-MS assay; assay type: physicochemical
[8] = Glutathione reactivity of compound at pH 8 measured by HPLC-MS assay; assay type: physicochemical
[9] = molecular target: T3, Proteasome subunit beta type-8 (Homo sapiens); experiment: Inhibition of human chymotrypsin-like beta 5i subunit of iCP assessed as residual activity using suc-LLVY-AMC as flurogenic substrate at 10 uM for 90 mins by fluorescence-based assay
[10] = molecular target: T4, Proteasome Macropain subunit MB1 (Homo sapiens, UniProt P28074); experiment: Inhibition of beta 5 chymotrypsin-like activity (unknown origin) using Suc-LLVY-AMC as substrate for 90 mins by fluorescence based assay
T4 sequence (P28074 whole entry): T1 sequence (whole entry)

[11] = molecular target: T3, Proteasome subunit beta type-8 (Homo sapiens); experiment: Inhibition of human chymotrypsin-like beta 5i subunit of iCP assessed as residual activity using suc-LLVY-AMC as flurogenic substrate at 150 uM for 90 mins by fluorescence-based assay

Activity [1]: 92% | IC50 [2]: 30 µM | Drug metabolism [3]: Metabolite_Detected
SMILES: Cc1ccc2[nH]c(=S)oc2c1

Activity [1]: 101% | IC50 [2]: 67 µM
SMILES: N#Cc1nc2cc(Cl)ccc2o1

Activity [4]: 99%
SMILES: Cn1c(C#N)nc2ccccc21

Activity [1]: 116% | IC50 [2]: 17 µM | Drug metabolism [3]: Metabolite_Detected
SMILES: Sc1nc2ccccc2o1

Activity [4]: 61%
SMILES: N#Cc1nc2ccccc2s1

Activity [4]: 63%
SMILES: CC(=O)Nc1ccc2[nH]c(=S)oc2c1

Drug metabolism [5]: Metabolite_Notdetected | Drug metabolism [6]: Metabolite_Notdetected | Drug metabolism [7]: Metabolite_Notdetected | Drug metabolism [8]: Metabolite_Notdetected | Activity [4]: 58%
SMILES: O=[N+]([O-])c1ccc2sc(=S)[nH]c2c1

Activity [9]: 57%
SMILES: CC(=O)Nc1ccc2[nH]c(=S)[nH]c2c1

Activity [4]: 94%
SMILES: Cn1c(=S)[nH]c2cccc(NC(=O)Cc3cccnc3)c21

IC50 [2]: 130 µM
SMILES: CC(=O)Nc1ccc2[nH]c(=S)sc2c1

Activity [1]: 89% | IC50 [2]: 20 µM
SMILES: Cn1c(C#N)nc2cccc(Cl)c21

IC50 [2]: 43 µM | Drug metabolism [5]: Metabolite_Notdetected | Drug metabolism [6]: Metabolite_Notdetected | Drug metabolism [7]: Metabolite_Notdetected | Drug metabolism [8]: Metabolite_Notdetected
SMILES: S=c1[nH]c2c(Cl)cccc2s1

IC50 [2]: 65 µM | Drug metabolism [5]: Metabolite_Notdetected | Drug metabolism [6]: Metabolite_Notdetected | Drug metabolism [7]: Metabolite_Notdetected | Drug metabolism [8]: Metabolite_Notdetected
SMILES: S=c1[nH]c2ccc(Cl)cc2o1

IC50 [2]: 27 µM
SMILES: Nc1ccc2[nH]c(=S)oc2c1

Activity [4]: 47%
SMILES: Cn1c(=S)[nH]c2cccc(NC(=O)c3ccccc3)c21

IC50 [2]: 79 µM
SMILES: Nc1cccc2[nH]c(=S)oc12

Activity [4]: 50%
SMILES: Cn1c(C#N)nc2ccc(Cl)cc21

IC50 [2]: 10 µM | IC50 [10]: 93 µM
SMILES: N#Cc1nc2cccc(Cl)c2o1

Activity [9]: 49%
SMILES: Nc1ccc2[nH]c(S)nc2c1

IC50 [2]: 129 µM
SMILES: O=C(Nc1cccc2[nH]c(=S)oc12)c1ccccc1

Activity [4]: 52%
SMILES: Cn1c(=S)[nH]c2ccc([N+](=O)[O-])cc21

Activity [4]: 58%
SMILES: N#Cc1nc2ccc(Cl)cc2s1

IC50 [2]: 81 µM
SMILES: COc1cccc2oc(=S)[nH]c12

Activity [1]: 95% | Activity [9]: 80% | Drug metabolism [3]: Metabolite_Notdetected
SMILES: CCOc1ccc2[nH]c(S)nc2c1

Activity [1]: 59% | IC50 [2]: 9.7 µM | Drug metabolism [5]: Metabolite_Notdetected | Drug metabolism [6]: Metabolite_Notdetected | Drug metabolism [3]: Metabolite_Detected | Drug metabolism [7]: Metabolite_Notdetected | Drug metabolism [8]: Metabolite_Notdetected
SMILES: S=c1[nH]c2cccc(Cl)c2s1

Activity [11]: 50%
SMILES: Cn1c(=S)[nH]c2c(Cl)cccc21

Activity [4]: 89%
SMILES: Cn1c(=S)[nH]c2ccc(NC(=O)Cc3cccnc3)cc21

Activity [1]: 85% | IC50 [2]: 13 µM | Drug metabolism [3]: Metabolite_Detected
SMILES: Sc1nc2ccccc2s1 [2-MERCAPTOBENZOTHIAZOLE]

Activity [4]: 72%
SMILES: Cn1c(=S)[nH]c2ccc(NC(=O)CCc3cccnc3)cc21

Activity [4]: 56%
SMILES: Cc1ccc2sc(=S)[nH]c2c1

Activity [4]: 63%
SMILES: Cn1c(=S)[nH]c2cccc(N)c21

Activity [1]: 99% | IC50 [2]: 1.8 µM | Drug metabolism [5]: Metabolite_Notdetected | Drug metabolism [6]: Metabolite_Notdetected | Drug metabolism [3]: Metabolite_Detected | Drug metabolism [7]: Metabolite_Notdetected | Drug metabolism [8]: Metabolite_Notdetected
SMILES: Cn1c(=S)[nH]c2cccc(Cl)c21

IC50 [2]: 9 µM | Drug metabolism [5]: Metabolite_Notdetected | Drug metabolism [6]: Metabolite_Notdetected | Drug metabolism [7]: Metabolite_Notdetected | Drug metabolism [8]: Metabolite_Notdetected
SMILES: O=[N+]([O-])c1ccc2oc(=S)[nH]c2c1

IC50 [2]: 13 µM
SMILES: COc1ccc2[nH]c(=S)sc2c1

Activity [4]: 59%
SMILES: COc1ccc2oc(=S)[nH]c2c1

Activity [1]: 94% | IC50 [2]: 16 µM | Drug metabolism [5]: Metabolite_Notdetected | Drug metabolism [6]: Metabolite_Notdetected | Drug metabolism [3]: Metabolite_Detected | Drug metabolism [7]: Metabolite_Notdetected | Drug metabolism [8]: Metabolite_Notdetected
SMILES: S=c1[nH]c2cccc(Cl)c2o1

IC50 [2]: 9 µM
SMILES: CCOc1ccc2nc(S)sc2c1

Activity [1]: 98% | IC50 [2]: 62 µM | Drug metabolism [5]: Metabolite_Notdetected | Drug metabolism [6]: Metabolite_Notdetected | Drug metabolism [3]: Metabolite_Notdetected | Drug metabolism [7]: Metabolite_Notdetected | Drug metabolism [8]: Metabolite_Notdetected
SMILES: Sc1nc2cc(Cl)ccc2[nH]1

Activity [4]: 65%
SMILES: O=C(Nc1ccc2[nH]c(=S)oc2c1)[C@H]1CCCN1

Activity [4]: 70%
SMILES: N#Cc1cccc(-c2cccc3[nH]c(=S)sc23)c1

Activity [4]: 54%
SMILES: S=c1[nH]c2cccc(-c3ccccc3)c2s1

IC50 [2]: 26 µM
SMILES: O=C(CCc1cccnc1)Nc1ccc2[nH]c(=S)sc2c1

Activity [1]: 87% | IC50 [2]: 4.1 µM | Drug metabolism [3]: Metabolite_Detected
SMILES: Oc1cccc2oc(S)nc12

SMILES: Sc1nc2ccccc2[nH]1 [2-MERCAPTOBENZIMIDAZOLE]
Activity [1]: 100% | IC50 [2]: 114 µM | Drug metabolism [3]: Metabolite_Notdetected

Activity [9]: 97%
SMILES: COc1ccc2[nH]c(S)nc2c1

Activity [4]: 89%
SMILES: N#Cc1nc2ccccc2[nH]1

IC50 [2]: 60 µM
SMILES: S=c1[nH]c2cccc(Cl)c2[nH]1

Activity [1]: 82% | IC50 [2]: 75 µM
SMILES: N#Cc1nc2cccc(Cl)c2[nH]1

Activity [4]: 44%
SMILES: C=CC(=O)Nc1nc2ccccc2s1

Activity [9]: 95%
SMILES: Cc1ccc2[nH]c(=S)[nH]c2c1

IC50 [2]: 149 µM
SMILES: CC(=O)Nc1ccc2[nH]c(=S)n(C)c2c1

IC50 [2]: 96 µM | Drug metabolism [5]: Metabolite_Notdetected | Drug metabolism [6]: Metabolite_Notdetected | Drug metabolism [7]: Metabolite_Notdetected | Drug metabolism [8]: Metabolite_Notdetected
SMILES: Sc1nc2cc(Cl)ccc2o1

IC50 [2]: 85 µM
SMILES: N#Cc1nc2c(Cl)cccc2s1

Activity [1]: 91% | IC50 [2]: 94 µM | Drug metabolism [3]: Metabolite_Notdetected
SMILES: Cn1c(S)nc2ccccc21

Activity [1]: 72% | IC50 [2]: 18 µM
SMILES: N#Cc1nc2cccc(Cl)c2s1

IC50 [2]: 15 µM
SMILES: O=C(Cc1cccnc1)Nc1ccc2[nH]c(=S)sc2c1

Activity [4]: 40%
SMILES: C=CS(=O)(=O)c1nc2ccccc2s1

IC50 [2]: 3 µM
SMILES: COC(=O)c1ccc2[nH]c(=S)oc2c1

Activity [4]: 87%
SMILES: S=c1[nH]c2cccc(Br)c2[nH]1

IC50 [2]: 49 µM
SMILES: O=C(Nc1ccc2[nH]c(=S)oc2c1)c1ccccc1

Activity [4]: 50%
SMILES: O=C(Cc1cccnc1)Nc1ccc2[nH]c(=S)oc2c1

Activity [4]: 56%
SMILES: O=C(CCc1cccnc1)Nc1ccc2[nH]c(=S)oc2c1

IC50 [2]: 36 µM
SMILES: S=c1[nH]c2c(Cl)cccc2o1

Activity [4]: 80%
SMILES: Nc1ccc2nc(S)sc2c1

Activity [9]: 84%
SMILES: Cc1cccc2[nH]c(=S)[nH]c12

Activity [4]: 83%
SMILES: C=CC(=O)Nc1nc2ccccc2n1C

Activity [4]: 88%
SMILES: CS(=O)(=O)c1nc2ccccc2s1

Activity [4]: 73%
SMILES: O=C(CCl)Nc1nc2ccccc2s1

Activity [4]: 99%
SMILES: Cc1ccc2oc(=S)[nH]c2c1

Drug metabolism [5]: Metabolite_Notdetected | Drug metabolism [6]: Metabolite_Notdetected | Drug metabolism [7]: Metabolite_Notdetected | Drug metabolism [8]: Metabolite_Notdetected | Activity [4]: 69%
SMILES: O=[N+]([O-])c1ccc2nc(S)sc2c1

Activity [1]: 84% | IC50 [2]: 11 µM | Drug metabolism [3]: Metabolite_Detected
SMILES: S=c1[nH]c2cccc(Br)c2s1

Activity [4]: 92%
SMILES: Cn1c(=S)[nH]c2cccc(NC(=O)CCc3cccnc3)c21

Activity [1]: 71% | IC50 [2]: 28 µM
SMILES: N#Cc1nc2ccc(Cl)cc2[nH]1

IC50 [2]: 95 µM
SMILES: O=C(Nc1ccc2[nH]c(=S)sc2c1)[C@H]1CCCN1

Activity [1]: 94% | IC50 [2]: 4.2 µM | Drug metabolism [5]: Metabolite_Notdetected | Drug metabolism [6]: Metabolite_Notdetected | Drug metabolism [3]: Metabolite_Detected | Drug metabolism [7]: Metabolite_Notdetected | Drug metabolism [8]: Metabolite_Notdetected
SMILES: Cn1c(S)nc2ccc(Cl)cc21

IC50 [2]: 109 µM
SMILES: Cn1c(=S)[nH]c2ccc(NC(=O)[C@H]3CCCN3)cc21

IC50 [2]: 32 µM
SMILES: Sc1nc2cc(Cl)ccc2s1

IC50 [2]: 7.2 µM
SMILES: COc1ccc2sc(=S)[nH]c2c1

Activity [4]: 67%
SMILES: Cn1c(=S)[nH]c2ccc(N)cc21

IC50 [2]: 156 µM
SMILES: O=C(Cc1cccnc1)Nc1cccc2[nH]c(=S)oc12

Activity [1]: 82% | IC50 [2]: 83 µM
SMILES: N#Cc1nc2ccccc2o1

IC50 [2]: 7.1 µM
SMILES: O=C(Nc1ccc2nc(S)sc2c1)c1ccccc1
